Data as given in patent publication US6677276B1, “Herbicides for tolerant or resistant oil seed rape cultures” (Aventis CropScience GmbH, priority 1998, dated 2004).
Structures can show the parent of a compound that is named as a salt.

Tests used:
Matricaria chamomita = assay: Field trial, herbicidal action (Table 4); assay type: in vivo; settings: post-emergence application in the 4-leaf stage, scoring 28 days after post-emergence application
Protocol: (§1) Transgenic oil-seed rape plants with resistance to one or more herbicides (A) were grown together with typical weed plants in the open in 2×5 m plots under natural field conditions; alternatively, the weed population established naturally while the oil-seed rape plants grew. Treatment with the compositions according to the invention and, for control purposes, with separate application of the active ingredients of the components alone, was carried out under standard conditions with a plot sprayer at an application rate of 200-300 liters of water per hectare in parallel trials in accordance with the scheme of Table 1, i.e. pre-sowing/pre-emergence, post-sowing/-pre-emergence or post-emergence at the early, medium or late stage.
(§2) At 2, 4, 6 and 8 week intervals after application, the herbicidal activity of the active ingredients or active ingredient mixtures were scored visually by comparing the treated plots with untreated control plots. Damage and development of all aerial plant organs was recorded. The scoring was done using a percentage scale (100% activity=all plants dead; 50% activity=50% of the plants and green plant organs dead; 0% activity=no discernible effect=like control plot). The score values of in each case 4 plots were averaged.

Cirsium arvense = assay: Field trial, herbicidal action (Table 5); assay type: in vivo; settings: application in the 4-leaf stage, scoring 15 days after application
Protocol: as §1, §2

Chenopodium album = assay: Field trial, herbicidal action (Table 5); assay type: in vivo; settings: application in the 4-leaf stage, scoring 15 days after application
Protocol: as §1, §2

Oil-seed rape LL = assay: Field trial, crop plant tolerance; assay type: in vivo, Liberty-Link oil-seed rape; settings: crop damage
Protocol: Transgenic oil-seed rape plants with resistance to one or more herbicides (A) were grown together with typical weed plants in the open in 2×5 m plots under natural field conditions; alternatively, the weed population established naturally while the oil-seed rape plants grew.
Damage and development of all aerial plant organs was recorded. […] The score values of in each case 4 plots were averaged.

Datura stramonium = assay: Oil-seed rape field trial, herbicidal action (Table 2); assay type: in vivo; settings: application in the 5-leaf stage, scoring 3 weeks after application
Protocol: as §1
[…] Damage and development of all aerial plant organs was recorded. The scoring was done using a percentage scale (100% activity=all plants dead; 50% activity=50% of the plants and green plant organs dead; 0% activity=no discernible effect=like control plot). The score values of in each case 4 plots were averaged.

Galium aparine = assay: Oil-seed rape field trial, herbicidal action (Table 3); assay type: in vivo; settings: application in the 4-5 leaf stage, scoring 36 days after application
Protocol: as §1, §2

## Cc1cnc2c(C(=O)O)c(Cl)ccc2c1 [(B2.1), 7-chloro-3-methylquinoline-8-carboxylic acid]
Matricaria chamomita; 300 g of A.S./ha
  Herbicidal action % against Matricaria chamomita: 50%

## CCCCCCCCSC(=O)Oc1cc(Cl)nnc1-c1ccccc1 [(B2.3), O-(6-chloro-3-phenylpyridazin-4-yl) S-octyl thiocarbonate]
Matricaria chamomita; 600 g of A.S./ha
  Herbicidal action % against Matricaria chamomita: 60%

## O=C(O)c1nc(Cl)ccc1Cl [(B2.2), 3,6-dichloropyridine-2-carboxylic acid]
Cirsium arvense; 90 g of A.S./ha
  Herbicidal action (%) against Cirsium arvense: 85%
Chenopodium album; 90 g of A.S./ha
  Herbicidal action (%) against Chenopodium album: 50%
Oil-seed rape LL; 90 g of A.S./ha, 4-leaf stage, scoring 15 days after application
  Oil-seed rape LL: 0%

## Cc1cccc(C)c1N(Cn1cccn1)C(=O)CCl [(B1.1), 2-chloro-N-(2,6-dimethylphenyl)-N-(1H-pyrazol-1-ylmethyl)acetanilide]
Datura stramonium; 600 g of A.S./ha
  Herbicidal action (%) against Datura stramonium: 40%
Datura stramonium; 1200 g of A.S./ha
  Herbicidal action (%) against Datura stramonium: 93%

## CCOc1nc(NC)nc(NC(=O)NS(=O)(=O)c2ccccc2C(=O)OC)n1 [(B2.4), methyl 2-{N-[N-(4-ethyox-6-methylamino-1,3,5-triazin-2-yl)aminocarbonyl]aminosulfonyl}benzoate]
Cirsium arvense; 15 g of A.S./ha
  Herbicidal action (%) against Cirsium arvense: 0%
Chenopodium album; 15 g of A.S./ha
  Herbicidal action (%) against Chenopodium album: 30%
Oil-seed rape LL; 15 g of A.S./ha, 4-leaf stage, scoring 15 days after application
  Oil-seed rape LL: 0%

## CP(=O)(O)CCC(N)C(=O)O (stereo not shown) [(A1.2), glufosinate monoammonium salt]
Galium aparine; 125 g of A.S./ha
  Herbicidal action (%) against Galium aparine: 15%
Galium aparine; 250 g of A.S./ha
  Herbicidal action (%) against Galium aparine: 41%
Galium aparine; 500 g of A.S./ha
  Herbicidal action (%) against Galium aparine: 63%
Datura stramonium; 600 g of A.S./ha
  Herbicidal action (%) against Datura stramonium: 90%
Cirsium arvense; 230 g of A.S./ha
  Herbicidal action (%) against Cirsium arvense: 85%
Cirsium arvense; 350 g of A.S./ha
  Herbicidal action (%) against Cirsium arvense: 97%
Chenopodium album; 230 g of A.S./ha
  Herbicidal action (%) against Chenopodium album: 90%
Matricaria chamomita; 125 g of A.S./ha
  Herbicidal action % against Matricaria chamomita: 10%
Matricaria chamomita; 250 g of A.S./ha
  Herbicidal action % against Matricaria chamomita: 35%
Matricaria chamomita; 500 g of A.S./ha
  Herbicidal action % against Matricaria chamomita: 65%
Oil-seed rape LL; 125 g of A.S./ha, 4-5 leaf stage, scoring 36 days after application
  Oil-seed rape LL: 0%
Oil-seed rape LL; 230 g of A.S./ha, 4-leaf stage, scoring 15 days after application
  Oil-seed rape LL: 0%
Oil-seed rape LL; 250 g of A.S./ha, 4-5 leaf stage, scoring 36 days after application
  Oil-seed rape LL: 0%
Oil-seed rape LL; 350 g of A.S./ha, 4-leaf stage, scoring 15 days after application
  Oil-seed rape LL: 0%
Oil-seed rape LL; 500 g of A.S./ha, 4-5 leaf stage, scoring 36 days after application
  Oil-seed rape LL: 3%
